Broadly, the IC50 is the concentration at which inhibition is half-maximal.

Our source for the IC50 values is patent US4797471A, “Peptide derivatives having an inhibitory action on hydroxylating enzymes, a process for their preparation, agents containing them, and their use” (Hoechst Aktiengesellschaft, priority 1985, dated 1989).

In one experiment the target is Proline hydroxylase. The experiment in a line: Enzyme test: hydroxylation of underhydroxylated collagen, proline hydroxylase inhibition. In kind it is biochemical. Particulars: 50% inhibition of the enzyme reaction; Iron(II) ions, α-ketoglutarate and ascorbate. The source says:
(§1) The inhibitory action of the substances according to the invention, for example on collagen biosynthesis, can be tested in an enzyme test in analogy to the method of B. Peterkovsky and R. DiBlasio, Anal. Biochem. 66, 279-286 (1975). This entails enzymatic hydroxylation of underhydroxylated collagen in the presence of IronlII) ions, α-ketoglutarate and ascorbate. The enzymes which can be used are prolyl 4-hydroxylase, prolyl 3-hydroxylase or lysl hydroxylase in a cell-free test medium. The inhibitory action can also be measured in cell or tissue culture and is reported as 50% inhibition of the enzyme reaction (IC50).

In the next experiment the target is Lysine hydroxylase. In words: Enzyme test: hydroxylation of underhydroxylated collagen, lysine hydroxylase inhibition. In kind it is biochemical. The settings on record: 50% inhibition of the enzyme reaction; Iron(II) ions, α-ketoglutarate and ascorbate.
Excerpt: as §1

As for `CC(=O)N1CCC[C@H]1C(=O)N[C@@H](CCCNC(=O)c1ccc(O)c(O)c1)C(=O)NCC(=O)O` [Ac-Pro-Orn(3,4-dihydroxybenzoyl)-Bly-OH], the figures for the half-maximal inhibitory concentration (IC50) against Proline hydroxylase and at Lysine hydroxylase were 50 µM and 39 µM, respectively.
As for `CC(=O)N1CCC[C@H]1C(=O)N[C@@H](CCCNC(=O)c1cc(O)c(O)c(O)c1)C(=O)NCC(=O)O` [Ac--Pro--Orn(3,4,5-Trihydroxybenzoyl)-Gly--OH], the values for the IC50 at Proline hydroxylase and on Lysine hydroxylase were 17 µM and 26 µM, respectively.
Regarding `CC(=O)N1CCC[C@H]1C(=O)N[C@@H](CCCNC(=O)Cc1ccc(O)c(O)c1)C(=O)NCC(=O)O` [Ac--Pro--Orn(3,4-Dihydroxyphenylacetyl)-Gly--OH], the IC50 against Proline hydroxylase amounted to 155 µM; against Lysine hydroxylase it was 70 µM.
The matching figures for `CC(=O)N[C@@H](CCCNC(=O)c1cccc(O)c1O)C(=O)N1CCC[C@H]1C(=O)NCC(=O)O` [Ac-Orn(2,3-dihydroxybenzoyl)-Pro-Gly-OH]: 38 µM and 7 µM.
Regarding `CC(=O)N[C@@H](CCCNC(=O)c1ccc(O)c(O)c1)C(=O)N1CCC[C@H]1C(=O)NCC(=O)O` [Ac--Orn(3,4-Dihydroxybenzoyl)-Pro--Gly--OH], the figures for the IC50 at Proline hydroxylase and against Lysine hydroxylase were 72 µM and 7 µM, respectively.
The matching figures for `CC(=O)N[C@@H](CCCNC(=O)c1cc(O)c(O)c(O)c1)C(=O)N1CCC[C@H]1C(=O)NCC(=O)O` [Ac--Orn(3,4,5-Trihydroxybenzoyl)-Pro--Gly--OH]: 29 µM and 8 µM.
With `CC(=O)N[C@@H](CCCNC(=O)Cc1ccc(O)c(O)c1)C(=O)N1CCC[C@H]1C(=O)NCC(=O)O` [Ac--Orn(3,4-Dihydroxyphenylacetyl)-Pro--Gly--OH], the results for the half-maximal inhibitory concentration (IC50) against Proline hydroxylase and against Lysine hydroxylase were 140 µM and 37 µM, respectively.
